According to patent US8399417B2, “Food” (Ajinomoto Co., Inc., priority 2007, dated 2013):
Starred links: 1 amine or outer side, 2 acyl side, 3 side chain; linkers in the order of their positions; H or OH if unused. Non-standard residues stand in square brackets, D forms with d. No end group written: not given here. γGlu = O=C(O)[C@H](CCC(=O)[*:2])N[*:1]

Test: Fat-like richness and smoothness imparted to low-fat yogurt, quantitative sensory evaluation test
Type: in vivo, human
Conditions: Table 10
Description: The quantitative sensory evaluation test was performed as follows. Each of γ-Glu-Val-Gly and cinacalcet was mixed with commercially-available low-fat yogurt (non-fat milk solids content: 10.0%, milk fat content: 1.0%) at a concentration of 0.00001 to 1 g/dl, and the intensity of imparting fat-like richness was measured.
It should be noted that after each sample was dissolved in low-fat yogurt, and a sample, the pH of which was lowered, was adjusted with NaOH so that the pH might be ±0.2 with respect to the pH of the […] free of a sample.
The sensory score for fat-like richness and smoothness was defined as follows: control (free of sample): 0 point; strong: 3 points; and very strong: 5 points. Then, the test was performed with n=12.

In the case of [γGlu]-Val-Gly, the Fat-like richness (0.001 g/dl in low-fat yogurt (milk fat 1.0%), n=12, control 0, strong 3, very strong 5 points) is reported as 4.5 points, the Taste profile (0.001 g/dl in low-fat yogurt) is reported as “Taste is enhanced in middle” and the Smoothness (0.001 g/dl in low-fat yogurt, n=12, control 0, strong 3, very strong 5 points) is reported as 4.0 points.
